Data on 20 compounds can be found in patent US8030336B2, “Nicotinamide-based kinase inhibitors” (YM Biosciences Australia Pty Ltd, priority 2002, dated 2011).

A word on the inhibition: it is the drop in the measured response relative to a control, in per cent.

Holding throughout (format): biochemical
Experiment [1] deals with T1, Zap70 (Homo sapiens, UniProt P43403).
T1 sequence (P43403 338-600 limits assumed): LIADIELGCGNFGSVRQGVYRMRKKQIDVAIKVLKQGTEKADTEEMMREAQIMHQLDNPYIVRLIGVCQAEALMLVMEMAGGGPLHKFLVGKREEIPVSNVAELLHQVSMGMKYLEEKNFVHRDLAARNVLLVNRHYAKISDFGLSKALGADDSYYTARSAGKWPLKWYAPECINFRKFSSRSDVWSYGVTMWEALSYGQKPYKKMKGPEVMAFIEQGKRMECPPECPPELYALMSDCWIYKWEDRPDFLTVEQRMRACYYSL
Description: Zap70 kinase assay (ELISA or Alphascreen). The settings on record: read-out: Zap70 inhibition of enzyme activity. As to the method:
(§1) Kinase assays were performed in a 96 well capture-based ELISA assay or in 384 well Optiplates (Packard) using an Alphascreen Protein Tyrosine Kinase kit. In either case using approximately 1.5 μg of affinity purified PTK domain in the presence of 50 mM HEPES, pH 7.5, 10 mM MgCl2, 150 mM NaCl and 10 μM-1 mM ATP. The biotinylated substrate biotin-EGPWLEEEEEAYGWMDF-NH2 (SEQ ID NO:9) (final concentration 5 μM) was used as substrate. In the ELISA assay tyrosine phosphorylation was quantitated following transfer to an avidin coated ELISA plate using peroxidase-linked anti-phosphotyrosine antibody PY20. In the Alphascreen assay, Alphascreen phosphotyrosine acceptor beads followed by streptavidin donor beads were added under subdued light. The ELISA plates were read on a BMG Fluorostar, the Alphascreen plates were read on a Packard Fusion Alpha. Inhibitors were added to the assays fifteen minutes prior to the addition of ATP. Inhibitors were added in aqueous […] concentrations never exceeding 1%.
For orientation: ELISA stands for enzyme-linked immunosorbent assay.

Experiment [2] has as its target T2, human JAK3 (Homo sapiens, UniProt P52333).
T2 construct: The kinase domain of human JAK3 was amplified from U937mRNA; His tag (from the pFastBac HTb vector) (N); made in house; host or cells: baculovirus; Sf9 for virus, High Five insect cells for production
Description: JAK3 kinase assay (ELISA or Alphascreen). Particulars: read-out: Jak3 inhibition of enzyme activity.
Excerpt: The kinase domain of human JAK3 was amplified from U937mRNA using the polymerase chain reaction with the following primers: […]
JAK3 PCR products were cloned into the pFastBac HTb expression vector (Gibco) via the Xho I and Kpn I sites. The JAK3 plasmid was then transformed into competent DH10Bac cells (Gibco), and the recombinant baculovirus produced prepared for transfection into Sf9 insect cells.
(§2) Baculovirus preparations from each of the JAK family members were infected into five liters of High Five cells (Invitrogen) grown in High Five serum free medium (Invitrogen) to a cell density of approximately 1-2×10^6 cells/ml. Cells are infected with virus at a MOI of 0.8-3.0. Cells were harvested and lysed. JAK kinase domains were purified by affinity chromatography on a Probond (Invitrogen) nickel chelate affinity column.
as §1

Experiment [3] has as its target hck (Homo sapiens, UniProt P08631). Description: hck kinase assay (ELISA or Alphascreen). Particulars: read-out: hck inhibition of enzyme activity. On the procedure: as §1
In experiment [4] the target is T3, human JAK2 (Homo sapiens, UniProt O60674).
T3 construct: The kinase domain of human JAK2 was amplified from U937mRNA; His tag (from the pFastBac HTc vector) (N); made in house; host or cells: baculovirus; Sf9 for virus, High Five insect cells for production
T3 sequence (O60674 849-1124 limits assumed): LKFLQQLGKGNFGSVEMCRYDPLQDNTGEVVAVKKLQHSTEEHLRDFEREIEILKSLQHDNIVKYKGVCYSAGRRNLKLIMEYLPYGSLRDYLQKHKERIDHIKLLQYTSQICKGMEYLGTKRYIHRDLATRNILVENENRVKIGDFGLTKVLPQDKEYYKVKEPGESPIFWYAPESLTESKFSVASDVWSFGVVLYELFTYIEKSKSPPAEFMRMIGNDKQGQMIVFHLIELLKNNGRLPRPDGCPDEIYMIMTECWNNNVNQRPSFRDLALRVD
The experiment is described as follows: JAK2 kinase assay (ELISA or Alphascreen). The settings on record: read-out: Jak2 inhibition of enzyme activity.
Excerpt: The kinase domain of human JAK2 was amplified from U937mRNA using the polymerase chain reaction with the following primers: […]
JAK2 PCR products were doped into the pFastBac HTc expression vector (Gibco) via the Sal I and Not I sites. The JAK2 plasmid was than transformed into competent DH10Bac cells (Gibco), and the recombinant baculovirus produced prepared for transfection into Sf9 insect cells.
as §2, §1

The target of experiment [5] is T4, fms (Homo sapiens, UniProt P07333).
T4 sequence (P07333 582-910 limits assumed): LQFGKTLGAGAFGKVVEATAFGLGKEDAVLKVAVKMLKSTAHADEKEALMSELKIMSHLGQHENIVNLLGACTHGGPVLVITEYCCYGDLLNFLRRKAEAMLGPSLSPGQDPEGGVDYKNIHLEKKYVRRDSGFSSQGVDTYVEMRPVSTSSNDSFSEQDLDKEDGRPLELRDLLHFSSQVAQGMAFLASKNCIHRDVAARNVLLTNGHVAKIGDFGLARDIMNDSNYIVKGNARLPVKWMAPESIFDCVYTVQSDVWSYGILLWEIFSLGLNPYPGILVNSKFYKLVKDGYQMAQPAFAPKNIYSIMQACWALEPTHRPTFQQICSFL
The experiment is described as follows: fms kinase assay (ELISA or Alphascreen). Particulars: read-out: fms inhibition of enzyme activity. As to the method: as §1

Experiment [6] deals with fes (Homo sapiens, UniProt P07332). Description: fes kinase assay (ELISA or Alphascreen). Particulars: read-out: fes inhibition of enzyme activity. As to the method:
as §1

In experiment [7] the target is T5, abl (Homo sapiens, UniProt P00519).
T5 sequence (P00519 242-493 limits assumed): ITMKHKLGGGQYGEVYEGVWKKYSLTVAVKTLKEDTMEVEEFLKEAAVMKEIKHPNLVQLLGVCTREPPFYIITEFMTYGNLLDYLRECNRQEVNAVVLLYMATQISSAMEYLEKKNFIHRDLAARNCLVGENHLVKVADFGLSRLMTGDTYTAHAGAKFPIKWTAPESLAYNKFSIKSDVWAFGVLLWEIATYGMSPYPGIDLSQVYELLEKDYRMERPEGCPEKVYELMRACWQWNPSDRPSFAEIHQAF
Description: abl kinase assay (ELISA or Alphascreen). The settings on record: read-out: abl inhibition of enzyme activity. On the procedure: as §1

hck, sequence (P08631 262-515 limits assumed, species assumed): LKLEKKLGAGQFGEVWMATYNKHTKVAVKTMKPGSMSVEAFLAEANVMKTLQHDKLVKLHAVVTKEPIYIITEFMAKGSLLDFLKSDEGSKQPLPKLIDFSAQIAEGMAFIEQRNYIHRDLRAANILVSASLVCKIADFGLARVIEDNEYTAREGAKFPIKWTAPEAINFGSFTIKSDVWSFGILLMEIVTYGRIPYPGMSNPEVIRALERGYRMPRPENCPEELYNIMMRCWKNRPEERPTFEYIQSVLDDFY
T2 sequence (P52333 822-1111 limits assumed): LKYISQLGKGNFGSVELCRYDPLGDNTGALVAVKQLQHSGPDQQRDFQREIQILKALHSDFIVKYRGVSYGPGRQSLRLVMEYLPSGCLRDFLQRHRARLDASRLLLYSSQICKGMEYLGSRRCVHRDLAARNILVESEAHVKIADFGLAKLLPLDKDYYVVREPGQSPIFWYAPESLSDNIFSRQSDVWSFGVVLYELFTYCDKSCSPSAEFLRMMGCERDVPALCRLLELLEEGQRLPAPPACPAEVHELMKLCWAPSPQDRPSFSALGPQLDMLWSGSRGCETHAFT
fes, sequence (P07332 561-822 limits assumed, species assumed): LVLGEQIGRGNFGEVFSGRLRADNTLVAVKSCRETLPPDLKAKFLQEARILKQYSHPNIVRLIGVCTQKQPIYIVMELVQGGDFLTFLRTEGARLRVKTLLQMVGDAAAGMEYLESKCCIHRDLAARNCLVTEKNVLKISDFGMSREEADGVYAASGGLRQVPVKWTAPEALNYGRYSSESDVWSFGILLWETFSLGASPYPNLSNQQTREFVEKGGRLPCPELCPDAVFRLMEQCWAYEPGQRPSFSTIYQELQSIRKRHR

`COc1cc(NC(=O)c2cncc(-c3cc(OC)c(OC)c(OC)c3Cl)c2)cc(OC)c1OC`: the inhibition at 10 µM in experiment [1], in experiment [2], in experiment [3], in experiment [4], in experiment [5] and in experiment [6] was under 50% each time.
`Cc1cc(-c2cncc(C(=O)NC(C)CCc3ccccc3)c2)cc(C)c1O` (stereo not shown): the inhibition at 10 µM in experiment [1], in experiment [2], in experiment [3], in experiment [4], in experiment [5] and in experiment [6] was under 50% in each case.
With `C[C@H](NC(=O)c1cncc(-c2ccc3c(c2)OCO3)c1)c1ccccc1`, the inhibition at 10 µM in experiment [1], in experiment [2], in experiment [3], in experiment [4], in experiment [5] and in experiment [6] was under 50% each time.
Regarding `Cc1ccc(F)cc1NC(=O)c1cncc(-c2cc(C)c(O)c(C)c2)c1`, the inhibition at 10 µM in experiment [1] is under 50%; in experiment [2], under 50%; in experiment [3], at least 50%; in experiment [4] it was under 50%; in experiment [5] it was at least 50%.
Consider `COc1cc(-c2cncc(C(=O)Nc3ccccc3C)c2)ccc1O`, for which the inhibition at 10 µM in experiment [1] is under 50%; in experiment [2] it was under 50%; in experiment [3] it was at least 50%; in experiment [4], under 50%; in experiment [5] it was under 50%; in experiment [6] it was under 50%.
Consider `COc1ccc(NC(=O)c2cncc(-c3ccc4c(c3)OCO4)c2)c(OC)c1`, for which the inhibition at 10 µM in experiment [2], in experiment [3], in experiment [4], in experiment [5] and in experiment [6] was under 50% throughout.
For `COc1cccc([C@H](C)NC(=O)c2cncc(-c3ccc(O)c(OC)c3)c2)c1`, the inhibition at 10 µM in experiment [1], in experiment [2], in experiment [3], in experiment [4], in experiment [5] and in experiment [6] was under 50% in each case.
In the case of `COc1cc(-c2cncc(C(=O)Nc3ccc(N4CCOCC4)cc3)c2)c(Cl)c(OC)c1OC`, the inhibition at 10 µM in experiment [1], in experiment [2], in experiment [4], in experiment [7], in experiment [5] and in experiment [6] was under 50% throughout.
For `C[C@@H](NC(=O)c1cncc(-c2ccc3c(c2)OCO3)c1)c1ccccc1`, the inhibition at 10 µM in experiment [1], in experiment [2], in experiment [3], in experiment [4], in experiment [5] and in experiment [6] was under 50% each time.
On to `O=C(NCc1ccncc1)c1cncc(-c2ccc(F)cc2)c1`, for which the inhibition at 10 µM in experiment [1], in experiment [2], in experiment [4], in experiment [7], in experiment [5] and in experiment [6] was under 50% each time.
For `COc1cc(-c2cncc(C(=O)Nc3ccc(F)cc3C)c2)c(Cl)c(OC)c1OC`, the inhibition at 10 µM in experiment [1] is under 50%; in experiment [2], under 50%; in experiment [3], at least 50%; in experiment [4], under 50%; in experiment [5] it was at least 50%; in experiment [6], under 50%.
Consider `Cc1ccc(C)c(NC(=O)c2cncc(-c3ccc(F)cc3)c2)c1`, for which the inhibition at 10 µM in experiment [1], in experiment [2], in experiment [3], in experiment [4], in experiment [5] and in experiment [6] was under 50% each time.
In the case of `COc1ccc(CNC(=O)c2cncc(-c3ccc4c(c3)OCO4)c2)cc1`, the inhibition at 10 µM in experiment [1], in experiment [2], in experiment [3], in experiment [4], in experiment [5] and in experiment [6] was under 50% throughout.
As for `O=C(NCc1ccc(Cl)c(Cl)c1)c1cncc(-c2cccs2)c1`, the inhibition at 10 µM in experiment [1], in experiment [2], in experiment [3], in experiment [4], in experiment [5] and in experiment [6] was under 50% each time.
`Cc1ccc(CNC(=O)c2cncc(-c3cc(C)c(O)c(C)c3)c2)cc1`: the inhibition at 10 µM in experiment [1], in experiment [2], in experiment [4], in experiment [7], in experiment [5] and in experiment [6] was under 50% in each case.
With `O=C(NCCO)c1cncc(-c2cccs2)c1`, the inhibition at 10 µM in experiment [1], in experiment [2], in experiment [4], in experiment [7], in experiment [5] and in experiment [6] was under 50% throughout.
Regarding `Cc1ccc(C)c(NC(=O)c2cncc(-c3cccs3)c2)c1`, the inhibition at 10 µM in experiment [1] is under 50%; in experiment [2] it was under 50%; in experiment [4] it was under 50%; in experiment [7], under 50%; in experiment [5], under 50%; in experiment [6], at least 50%.
Consider `COc1ccc(NC(=O)c2cncc(-c3cc(OC)c(OC)c(OC)c3Cl)c2)c(OC)c1`, for which the inhibition at 10 µM in experiment [1], in experiment [2], in experiment [4], in experiment [7], in experiment [5] and in experiment [6] was under 50% throughout.
As for `Cc1ccc(C)c(NC(=O)c2cncc(-c3ccc4c(c3)OCO4)c2)c1`, the inhibition at 10 µM in experiment [1], in experiment [2], in experiment [4], in experiment [7], in experiment [5] and in experiment [6] was under 50% in each case.
As for `COc1cc(-c2cncc(C(=O)NCc3cccc(F)c3)c2)c(Cl)c(OC)c1OC`, the inhibition at 10 µM in experiment [1], in experiment [2], in experiment [4], in experiment [7], in experiment [5] and in experiment [6] was under 50% each time.
